Key:
[1] = tested on: poly[d(A-T)2] (DNA, polymer) AT; assay: limited-bound ethidium bromide fluorescence quenching, Hill model; details: Na+ (40 mM NaCl); 80 mM HEPES pH 7.2; 5 μM EtBr, 25 μM DNA; EtBr fluorescence quenched; per base
[2] = tested on: FRET-3 (DNA, hairpin) ATCGGCGCCGATAAAAAATCGGCGCCGAT; assay: fluorescence (FRET) melting; details: 10 μM compound (r = 10), 1.0 μM DNA; control Tm 79.7 °C; condensation; +0.48 °C at r = 2
[3] = tested on: FRET-1 (DNA, hairpin) CGCGAATTCGCGAAAAACGCGAATTCGCG; assay: fluorescence (FRET) melting, Bard equation; details: 1.0 μM DNA; r = 0–7; derived from Tm fraction bound; 37 °C pre-incubation
[4] = tested on: FRET-4 (DNA, hairpin) ATGGCCGGCCGGAAAAACCGGCCGGCCAT; assay: fluorescence (FRET) melting; details: 10 μM compound (r = 10), 1.0 μM DNA; control Tm 83.0 °C; condensation; +1.21 °C at r = 2.5
[5] = tested on: FRET-2 (DNA, hairpin) GCATTATAATGCAAAAAGCATTATAATGC; assay: fluorescence (FRET) melting; details: 10 μM compound (r = 10), 1.0 μM DNA; control Tm 61.5 °C
[6] = tested on: poly[d(G-C)2] (DNA, polymer) GC; assay: ethidium bromide displacement (fluorescence); details: 12.5 μM EtBr displaced, 12.5 μM DNA, 1 h, per base
[7] = tested on: poly[d(A-T)2] (DNA, polymer) AT; assay: ethidium bromide displacement (fluorescence); details: 12.5 μM EtBr displaced, 12.5 μM DNA, 1 h, per base
[8] = tested on: poly[d(G-C)2] (DNA, polymer) GC; assay: limited-bound ethidium bromide fluorescence quenching, Hill model; details: Na+ (40 mM NaCl); 80 mM HEPES pH 7.2; 5 μM EtBr, 25 μM DNA; EtBr fluorescence quenched; per base
[9] = tested on: FRET-1 (DNA, hairpin) CGCGAATTCGCGAAAAACGCGAATTCGCG; assay: fluorescence (FRET) melting; details: 7 μM compound (r = 7), 1.0 μM DNA; control Tm 74.9 °C
[10] = tested on: F-1 (DNA, hairpin) CGCGAATTCGCGAAAAACGCGAATTCGCG; assay: MST instrument, initial fluorescence, Hill model; details: Na+ (25 mM NaCl); 80 mM HEPES; 1 μM DNA; low 10^–5 M; fluorescence decrease ascribed to DNA condensation
[11] = tested on: F-4 (DNA, hairpin) ATGGCCGGCCGGAAAAACCGGCCGGCCAT; assay: MST instrument, initial fluorescence, Hill model; details: Na+ (25 mM NaCl); 80 mM HEPES; 1 μM DNA; low 10^–5 M; fluorescence decrease ascribed to DNA condensation
[12] = tested on: F-3 (DNA, hairpin) ATCGGCGCCGATAAAAAATCGGCGCCGAT; assay: MST instrument, initial fluorescence, Hill model; details: Na+ (25 mM NaCl); 80 mM HEPES; 1 μM DNA; low 10^–5 M; fluorescence decrease ascribed to DNA condensation
[13] = tested on: F-2 (DNA, hairpin) GCATTATAATGCAAAAAGCATTATAATGC; assay: MST instrument, initial fluorescence, Hill model; details: Na+ (25 mM NaCl); 80 mM HEPES; 1 μM DNA; fluorescence decrease ascribed to DNA condensation
[14] = tested on: FRET-2 (DNA, hairpin) GCATTATAATGCAAAAAGCATTATAATGC; assay: fluorescence (FRET) melting, Bard equation; details: 1.0 μM DNA; r = 0–10; derived from Tm fraction bound; 37 °C pre-incubation
[15] = apparent, complex prepared in situ, Kapp = Kb × 12.6/C50

Q (EC50) [1]: 11.18 µM | Δ TM [2]: - 3.7 °C | Kb [3]: 1.06e+07 M⁻¹ | Δ TM [4]: - 6.3 °C | Δ TM [5]: + 3.6 °C | C50 [6]: 6.318 µM | Kapp [6, 15]: 1.75e+07 M⁻¹ | C50 [7]: 3.911 µM | Kapp [7, 15]: 2.84e+07 M⁻¹ | Q (EC50) [8]: 12.86 µM | Δ TM [9]: + 4.5 °C | EC50 [10]: 11.92 µM | EC50 [11]: 11.25 µM | EC50 [12]: 11.39 µM | EC50 [13]: 9.2 × 10^–6 M | Kb [14]: 4.38e+08 M⁻¹
Structure (SMILES): O=[N+]([O-])[O-].O=[N+]([O-])[O-].O=[N+]([O-])[O-].O=[N+]([O-])[O-].[Cu+2].[Cu+2].c1cnc2c(c1)cc(-n1cc(CCCCc3cn(-c4cc5cccnc5c5ncccc45)nn3)nn1)c1cccnc12

Source: article PMC11705080 (2025)
